Test results from US12606773B2, “Ionizable cationic lipids” (Akagera Medicines, Inc., priority 2020, dated 2026).

Key:
[1] = LNP particle size and polydispersity (ZetaSizer); type: physicochemical; conditions: for Particle Size (nm): mCherry mRNA LNP, 50 mol % ICL, N/P 5, DSPC 10, cholesterol 38.5, PEG-DMG 1.5 mol %; for Particle Size (nm) Post-Freeze/Thaw / Polydispersity Index PDI: same LNPs; for Particle Size (nm) Post-Freeze/Thaw: Table 4, post freeze/thaw
Procedure: (§1) • 5. The number of wells used on each plate was counted and 4 was added to this number. For plate B, PBS was prepared with Ribogreen diluted 1:100. For example, for 40 wells, 44 was used as the number. 44×60 μL=2.64 mL Ribogreen solution needed, so that would be 2.61 mL PBS with 26.4 μL Ribogreen. • 6. For plate C, 2.61 mL Dissociation buffer and 26.4 uL Ribogreen was pipetted. • 7. Using a repeater pipette set for 60 μL, PBS+RiboGreen was added to each well on plate B and 60 μL Dissociation Buffer+Ribogreen to plate C. Both plates B and C were mixed on an orbital mixer (120 rpm) for 1 min. Plate B was placed in the dark for 15 min. Plate C was incubated at 37° C. in the dark for 10 min, followed by 5 min at RT. • 8. Both plates were read one after the other, using Ex. 465, Em. 530 nm • 9. Using the standard curve, the slope and intercept were calculated and by extrapolation the mRNA concentrations of the samples on plate B & C were calculated (average and std.dev) • 10. Percent encapsulation efficiency (% EE) by [mRNA] plate B/[mRNA] plate C×100 was calculated • 11. Total [mRNA] by taking [mRNA] plate C×dilution factor was calculated. B. LNP Particle Size • 1. […] C. LNP Zeta Potential • 1.

[2] = mRNA encapsulation efficiency by Ribogreen fluorescent binding dye; type: physicochemical; conditions: same LNPs; for Encapsulation Efficiency (%): Table 4; for % Encapsulation ± SD: Table 3
Procedure: A. mRNA Concentration and Relative Encapsulation Efficiency Determination by Fluorescent Binding Dye
• Materials: Ribogreen reagent (Thermo #11491), 3×96-well plates with lids, PBS, dissociation buffer (PBS with 10% DMSO and 1% (wt/wt) Zwittergent 3-14 (Sigma-Aldrich #693017), mRNA, general pipette tips & repeater pipette tips. • 1. 5 mL of 2 μg/mL mRNA stock were prepared in DPBS or PBS • 2. Diluted standards were prepared as follows in single wells in a 96-well plate (Plate A);
• 3. Using different wells in Plate A, samples were diluted to be within the standard curve, you'll need one well per sample. For example, if the approximate mRNA concentration should be ˜30 ug/mL in the sample, a 20× dilution was performed (Dilution Factor). (20 uL sample added to 380 μL PBS in a well). No lid was used on plate A. Samples were mixed by gentle pipetting up & down.
• 4. Two more plates, plates B & C were used. Using a multichannel pipettor, 60 μL of each standard 2 were pipetted into wells each (duplicate), and sample into 3 wells each (triplicate)
as §1

[3] = LNP zeta potential (ZetaSizer Pro); type: physicochemical; conditions: same LNPs; for Zeta Potential mV, pH 5: Table 4, pH 5; for Zeta Potential mV, pH 7: Table 4, pH 7
[4] = Accelerated oxidation with H2O2/Fe(III)Cl, main lipid peak by UHPLC-CAD; type: physicochemical; conditions: for % of parent lipid peak at time 0, 24 h / % of parent lipid peak at time 0, 48 h / % of parent lipid peak at time 0, 72 h: 1% H2O2, 100 μM Fe(III)Cl, 37° C.; for stability under accelerated oxidation with hydrogen peroxide: compared to counterparts with a single methylene separating the two olefins
Procedure: Individual lipid stocks (10 mM) were prepared in ethanol and stored at −20° C. […] Liposomal formulations based on AKG-UO-1 and 0-11769 ionizable cationic lipids (Table 5) were prepared by combining lipid mixtures of desired composition in 1 mL ethanol with 3 mL 6.25 mM sodium acetate, pH 5.0 at 6 mL/min on a NanoAssemblr (Precision Nanosystems). 3.6 mL of the mixture was retained, while the initial 0.35 mL of the mixture and final 0.05 mL were discarded. Ethanol was removed by buffer exchange into PBS, pH 7.4 by concentrating each liposome preparation using an Aminon-Ultra 4 centrifugal concentrator at 500 g for 10 min at 4° C. and diluting back to the original volume with PBS. This cycle was repeated multiple times until the ethanol concentration was <1%. Finally, liposomes were sterile filtered through 0.2 μm PES (Nalgene) syringe filters and size measured by a ZetaSizer (Malvern).
Aliquots of the liposomal formulations were stored at −80° C. and thawed before the experiment. A combined stock in water of 10% H2O2 (Sigma-Aldrich, cat #H1009) and 1 mM of Fe(III)Cl (Sigma-Aldrich, cat #372870) was freshly prepared prior to the treatment. To make 1% final concentration of H2O2 and 100 μM Fe(III)Cl, 10 μl of 10% H2O2/1 mM Fe(III)Cl stock was added to 90 μl of both liposomal formulations and individual lipids The liposomes and individual lipids were incubated with H2O2/Fe(III)Cl at 37° C. and then 5 μl from each sample was taken at different time points (0, 3, 24, 48 and 72 hours) and dissolved in 90 μl of MeOH for HPLC analysis. Degradation of the main lipid peak was analyzed using Thermo Scientific Vanquish Flex UHPLC occupied with Charged Aerosol Detector (CAD) and Thermo Scientific Accucore™ C18+ UHPLC column (L=50 mm, D=2.1 mm, Particle Size=1.5 μm).
The data are presented as a percentage of the main lipid peak measured at different time points relative to the lipid peak measured at time zero.

[5] = tested on: MutuDC1940 cells; assay: Transfection efficiency of mCherry mRNA LNPs in murine dendritic cells; type: cell-based; conditions: LNPs 1 μg/mL, 24h
Procedure: A. Cell Propagation, Transfection, Harvesting and Staining Protocol
• 1. MutuDC1940 cells (ABM) were grown according to supplier's instructions in T75 flasks.
When required, they were plated at 180,000 cells/well into 24-well plate one day prior to transfection. • 2. LNPs were added in triplicate to each well at 1 μg/mL in 1 mL media and after 24h the cells were washed once with DPBS (VWR 02-0119-1000). • 3. 0.2 mL of DPBS (plus 5 mM EDTA, pH 7.4) was then added to facilitate detachment. • 4. The cells were placed at 37° C. for 3 min, until detached. • 5. 0.5 ml DPBS added to each well and the liquid transferred to a flow cytometry tube (Falcon 5 mL #352054) • 6. The tube was centrifuged at 1100 rpm for 3-5 min and the liquid poured off • 7. 100 μL of Zombie Violet (Biolegend) (diluted 1:500 in PBS) was added to each tube • 8. The tubes were gently tapped to resuspend cells and placed in the dark for 15 min at RT • 9. To the cells 0.5 mL of (paraformaldehyde 4% in PBS:DPBS 1:1) was added and the cells flicked gently to resuspend and put on ice for 30 min. Another 2 ml PBS was added. • 10. The cells were pelleted as above and resuspended in 0.5 mL DPBS with 5% BSA and placed in the fridge until needed. B. Cell Analysis • 1. Cells suspensions were analyzed by an Attune NxT flow cytometer using the VL1 and YL2 for live/dead and mCherry fluorescence signals respectively. Gating analysis was performed on FloJo software.

| SMILES | Particle Size (nm) ([1]; Table 4) | Particle Size (nm) Post-Freeze/Thaw [1] [nm] | Encapsulation Efficiency (%) [2] [%] | Zeta Potential mV, pH 5 [3] [mV] | Zeta Potential mV, pH 7 [3] [mV] | degradation after 48 hours of incubation with hydrogen peroxide [4] | % of parent lipid peak at time 0, 24 h ([4]; ICL lipid suspensions) [%] | % of parent lipid peak at time 0, 48 h ([4]; ICL lipid suspensions) [%] | % of parent lipid peak at time 0, 72 h ([4]; ICL lipid suspensions) [%] | % of parent lipid peak at time 0, 72 h ([4]; Liposome preparations) [%] | Particle Size (nm) ([1]; Table 3) | Polydispersity Index PDI ([1]; Table 3) | % Encapsulation ± SD [2] [%] | fold higher mCherry expression than KC2 ([5]; relative to KC2 LNP) [fold] | stability under accelerated oxidation with hydrogen peroxide [4] | fold higher mCherry expression than KC3 ([5]; relative to KC3 LNP) [fold] | fold higher mCherry expression than LNPs incorporating 0-11769 ([5]; relative to 0-11769 LNP) [fold] |
| --- | --- | --- | --- | --- | --- | --- | --- | --- | --- | --- | --- | --- | --- | --- | --- | --- | --- |
| CCCCCCCC/C=C\CCCCCCCC(=O)OC[C@H](CCN(C)C)OC(=O)CCCCCCC/C=C\CCCCCCCC [AKG-DM2-OA] | 77.6 | 111.5 | 64.9 ± 3.4 | 19.1 | 2.2 | – | – | – | – | – | – | – | – | – | – | – | – |
| CCCCC/C=C\CCCC/C=C\CCCCC(=O)OC[C@H](CCN(CC)CC)OC(=O)CCCC/C=C\CCCC/C=C\CCCCC [AKG-UO1A, (S)-4-(diethylamino)butane-1,2-diyl (6Z,6′Z,12Z,12′Z)-bis(octadeca-6,12-dienoate)] | 84.4 | 103.2 | 77.5 ± 0.9 | 28.0 | −0.9 | – | – | – | – | – | – | – | – | – | – | – | – |
| CCCCC/C=C\C/C=C\CCCCCCCC(=O)OC[C@H](CCN(C)C)OC(=O)CCCCCCC/C=C\C/C=C\CCCCC [Compound O-11769, reference compound] | 83.0 | 89.6 | 87.5 ± 2.7 | 17.1 | 4.1 | fully degraded | 31 ± 0.9 | 1 ± 0.2 | 0.3 ± 0.1 | 3.9±0.06 | – | – | – | – | – | – | – |
| CCCCCCCC/C=C\CCCCCCCC(=O)OC[C@H](CN(C)C)OC(=O)CCCCCCC/C=C\CCCCCCCC [DODAP, reference compound] | 69.8 | 68.2 | 83.4 ± 7.7 | 10.2 | −0.7 | – | – | – | – | – | – | – | – | – | – | – | – |
| CCCCC/C=C\C/C=C\CCCCCCCCC1(CCCCCCCC/C=C\C/C=C\CCCCC)OCC(CCN(C)C)O1 (centres unmarked) [KC2, reference compound] | – | – | – | – | – | fully degraded | – | – | 0 ± 0.0 | – | 93.7 | 0.01 | 68.2 ± 3.7 | – | – | – | – |
| CCCCC/C=C\CCCC/C=C\CCCCCC1(CCCCC/C=C\CCCC/C=C\CCCCC)OC[C@H](CCN(C)C)O1 [KC2-01, 2-((S)-2,2-di((6Z,12Z)-octadeca-6,12-dien-1-yl)-1,3-dioxolan-4-yl)-N,N-dimethylethan-1-amine] | – | – | – | – | – | – | – | – | – | – | 70.7 | 0.06 | 88.9 ± 1.6 | 4.4 | dramatically superior stability | – | – |
| CCCCC/C=C\C/C=C\CCCCCCCCC1(CCCCCCCC/C=C\C/C=C\CCCCC)OCC(CCCN(C)C)O1 (centres unmarked) [KC3, reference compound] | – | – | – | – | – | fully degraded | – | – | 0 ± 0.0 | – | 101.5 | 0.23 | 87.0 ± 2.3 | – | – | – | – |
| CCCCC/C=C\CCCC/C=C\CCCCCC1(CCCCC/C=C\CCCC/C=C\CCCCC)OC[C@H](CCCN(C)C)O1 [KC3-01, 3-((S)-2,2-di((6Z,12Z)-octadeca-6,12-dien-1-yl)-1,3-dioxolan-4-yl)-N,N-dimethylpropan-1-amine] | – | – | – | – | – | – | – | – | – | – | 91.6 | 0.03 | 88.9 ± 2.7 | – | dramatically superior stability | 3.4 | – |
| CCCCC/C=C\CCCC/C=C\CCCCC(=O)OC[C@H](CCN(C)C)OC(=O)CCCC/C=C\CCCC/C=C\CCCCC [UO-1, (S)-4-(dimethylamino)butane-1,2-diyl (6Z,6′Z,12Z,12′Z)-bis(octadeca-6,12-dienoate)] | 98.0 | 122.6 | 75.4 ± 2.2 | 21.9 | 2.3 | – | 78 ± 0.6 | 74 ± 0.1 | 65 ± 2.5 | 73±0.05 | – | – | – | – | dramatically superior stability | – | 4.2 |
